{"source": "patent US20230381215A1", "about": "“NOVEL COMBINATION TREATMENT FOR ACUTE MYELOID LEUKEMIA (AML)” (Hoffmann-La Roche Inc., priority 2013, published 2023)", "key": {"[1]": {"test_system": "MOLM-13.luc.c4 (MOLM-13 human AML cells)", "assay": "Antitumor efficacy and survival/increase in life span (ILS) in disseminated MOLM-13.luc.c4 AML model", "format": "in vivo, SCID beige mice", "settings": "for tumor burden by BLI photon counts compared to Vehicle-treated control (FIG. 1) / antitumor activity as assessed by tumor burden (BLI) or ILS: monotherapy; for tumor burden by BLI photon counts compared to Vehicle-treated control (FIG. 1): treatment initiated on day 3", "experimental": "(§1) Female SCID beige mice (10/group), obtained from Charles River Laboratories (Wilmington, DE) were used when they were approximately 8-12 weeks old and weighed approximately 20-25 grams. The health of the mice was assessed daily by gross observation and analyses of blood samples taken from sentinel animals housed on shared shelf racks. All animals were allowed to acclimate and recover from any shipping-related stress for a minimum of 72 hours prior to experimental use. Autoclaved water and irradiated food (5058-ms Pico Lab mouse chow, Purina Mills, Richmond, IN) were provided ad libitum, and the animals were maintained on a 12 hour light and dark cycle. Cages, bedding and water bottles were autoclaved before use and changed weekly. All animal experiments were conducted in accordance with the Guide for the Care and Use of Laboratory Animals, local regulations, and protocols approved by the Roche Animal Care and Use Committee in an AAALAC accredited facility.\nParental MOLM-13 human AML cells were stably transfected with Luc2 lentiviral particles for 24 hrs in the presence of Polybrene (8 ug/ml) and then selected in the presence of Blasticidin for 3 weeks. Subsequently, one clone was selected by single cell plating in the presence of 0.1 mg/mL G418 and was designated MOLM-13.luc.c4. The lentiviral Luc2 expression plasmid was constructed by incorporating Luc2 gene (Promega) in to pLOC lentiviral plasmid backbone (Thermo Fisher Scientific). Luc2 lentiviral particles were prepared by using Trans-Lentiviral Packaging System (Thermo Fisher Scientific) as recommended.\nMOLM-13.luc.c4 was maintained with RPMI 1640 with L-glutamine (2 mM) media (GIBCO/Invitrogen, Carlsbad, CA) supplemented with 10% heat-inactivated Fetal Bovine Serum (HI-FBS; GIBCO/Invitrogen, Carlsbad, CA), and 1% 100 mM sodium pyruvate. Freshly dissociated MOLM13-Luc.c4 cells (1×106 or 5×106) suspended in Phosphate Buffered Saline (PBS) were then intravenously inoculated via the caudal tail vein into female SCID-beige mice.\nIt was then filtered thru a 0.22 micron filter into a septum sealed vial for intravenous administration. […] Stock cytarabine (Ara-C injection, 100 mg/ml) was diluted in sterile 0.9% sodium chloride to 44 mg/ml according to manufacturer's instructions and dosed at 200 mg/kg iv twice weekly.\nTreatment duration was 3 weeks.\n(§2) For increased life span (ILS) assessment, animal body weights were measured two to three times per week, and animals were monitored daily for any clinical signs of toxicity or excessive tumor burden (i.e. hind limb paralysis or morbidity). In addition, progression of disease was monitored by in vivo bioluminescent imaging (BLI) using IVIS® Spectrum system. For each BLI session, mice received 100 mg/kg D-luciferin (Caliper Life Sciences/Perkin-Elmer) via ip injections and were imaged at 20 min post luciferin injection at either a 5 s or a 10 s exposure time. Images were captured by the IVIS® Spectrum system and data were collected and analyzed with Living Image 4.2.0 software (Caliper Life Sciences, Hopkinton, MA). Total photon fluxes (ph/s) representing luciferase activity within each fixed region of interest (ROI) covering whole tumors of individual mice were determined. The actual images of mice are not disclosed herein.\nQuantification of bioluminescence allowed for direct longitudinal comparison of tumor burden between treatment groups prior to surrogate death end points being reached. Tumor burden was graphically represented as the mean BLI photon flux+standard error of the mean (SEM), and median survival was determined utilizing Kaplan Meier survival analysis. Statistical analysis of comparisons between groups was analyzed by two-way ANOVA, and post-hoc Bonferroni test (GraphPad Prism, version 4.3). Differences between groups were considered to be significant when the probability value (p) was ≤0.05."}, "[2]": {"settings": "Ara-C 200 mg/kg 2×/week iv; 10/group", "experimental": "as §1, with “Cages, bedding and water bottles were autoclaved before use and changed weekly. All animal experiments were conducted in accordance with the Guide for the Care and Use of Laboratory Animals, local regulations, and protocols approved by the Roche Animal Care and Use Committee in an AAALAC accredited facility.” left out\nas §2, with “For each BLI session, mice received 100 mg/kg D-luciferin (Caliper Life Sciences/Perkin-Elmer) via ip injections and were imaged at 20 min post luciferin injection at either a 5 s or a 10 s exposure time.” left out, “The actual images of mice are not disclosed herein.” left out"}}, "data": [{"compound": "4-{[(2R,3S,4R,5S)-3-(3-Chloro-2-fluoro-phenyl)-4-(4-chloro-2-fluoro-phenyl)-4-cyano-5-(2,2-dimethyl-propyl)-pyrrolidine-2-carbonyl]-amino}-3-methoxy-benzoic acid 1-mPEG-carbonyloxy-ethyl ester (mPEG, average MW, 2200) [compound I-B]", "values": [{"measurement": "% ILS vs. Vehicle control", "setting": "[1]; Cpd I-B 437 mg/kg q7d iv", "value": 37, "unit": "%"}, {"measurement": "Median survival", "setting": "[1]; Cpd I-B 437 mg/kg q7d iv, 5 million cells, treatment from day 3", "value": 28, "unit": "days"}, {"measurement": "% ILS vs. Vehicle control", "setting": "[1]; Cpd I-B 437 mg/kg q7d iv, listed as Cpd I-B", "value": "*37%"}, {"measurement": "tumor burden by BLI photon counts compared to Vehicle-treated control (FIG. 1)", "setting": "[1]; 5 million cells", "value": "significantly reduced photon counts"}]}, {"compound": "Nc1ccn([C@@H]2O[C@H](CO)[C@@H](O)[C@@H]2O)c(=O)n1", "note": "[Ara-C, cytarabine, reference compound]", "values": [{"measurement": "Mortality", "setting": "[2]", "value": 0}, {"measurement": "% ILS vs. Vehicle control", "setting": "[1]; Ara-C 200 mg/kg 2×/wk iv", "value": 0, "unit": "%"}, {"measurement": "Median survival", "setting": "[1]; Ara-C 200 mg/kg 2×/wk iv", "value": 20, "unit": "days"}, {"measurement": "antitumor activity as assessed by tumor burden (BLI) or ILS", "setting": "[1]", "value": "lack of monotherapy activity"}, {"measurement": "tumor burden by BLI photon counts compared to Vehicle-treated control (FIG. 1)", "setting": "[1]; 5 million cells", "value": "no difference"}, {"measurement": "antitumor activity as assessed by tumor burden (BLI) or ILS", "setting": "[1]; listed as Cytarabine (Ara-C)", "value": "lack of antitumor activity"}]}, {"compound": "COc1cc(C(=O)O)ccc1NC(=O)[C@@H]1N[C@@H](CC(C)(C)C)[C@](C#N)(c2ccc(Cl)cc2F)[C@H]1c1cccc(Cl)c1F", "note": "[compound (A), 4-{[(2R,3S,4R,5S)-4-(4-Chloro-2-fluoro-phenyl)-3-(3-chloro-2-fluoro-phenyl)-4-cyano-5-(2,2-dimethyl-propyl)-pyrrolidine-2-carbonyl]-amino}-3-methoxy-benzoic acid]", "values": [{"measurement": "% ILS vs. Vehicle control", "setting": "[1]; Cpd (A) 80 mg/kg qd × 5 po", "value": "*37%"}, {"measurement": "Median survival", "setting": "[1]; Cpd (A) 80 mg/kg qd × 5 po", "value": 28, "unit": "days"}, {"measurement": "% ILS vs. Vehicle control", "setting": "[1]; Cpd (A) 100 mg/kg q7d po", "value": "*22%"}, {"measurement": "Median survival", "setting": "[1]; Cpd (A) 100 mg/kg q7d po", "value": 25, "unit": "days"}]}]}
